Like-named read-outs stand apart in the source and are kept apart here.
Tests used:
[1] = system: human erythrocytes (RBC's); test: Hemolysis assay, 50% lysis of RBC's; format: cell-based
Experimental: (§1) The biological activities of these peptides were measured using human erythrocytes and E. coli as models for mammalian and bacterial cells, respectively. Hemolysis was monitored in 10 mM Tris, 150 mM NaCl, pH 7.0, while the bacterial assay was conducted in minimal media M9 (Table 1); both of these solutions are sufficiently transparent to allow CD and ultracentrifugation measurements (supplementary material). Under the assay conditions, the peptides gave CD spectra similar to those in Tris buffer, with the exception of H-(β^3-HLeu-β^3-HLys-β^3-HLeu)n-OH, n=5 and 6.
(§2) ∇in M9 medium (data from Hamuro et al., ref. 5) # In M9 medium.+Hemolysis experiments were performed by incubating a 0.25% suspension of human RBc's in 10 mM Tris buffer containing […] at pH 7.0 with varying amounts of peptide. The hemolytic dose required to lyse 50% of the RBC's is reported as the HD50.
(§3) Hemolysis experiments were carried out by incubating 0.25% suspension of human erythrocytes (RBC's) with peptides of different concentrations in 150 mM sodium choloride, 10 mM Tris buffer, pH 7.0. The sample was prepared by combining 400 μL of the RBC suspension and […] of the peptide solution. After incubated the sample at 37— C. for 1 hour, the sample was centrifuged at 14,000 rpm for 5 min, and the OD414 of the supernatant was measured. Mellitin (50 μM) was used to get 100% hemolysis. The hemolytic IC50 was obtained by plotting hemolysis percentage vis. peptide concentration, and the concentration required for 50% hemolysis was determined from the smooth curve-fitted graph.
(§4) The activity and selectivity of peptide 1 and peptide 2 were examined by antibacterial assay and hemolysis experiments. E. Coli and human erythrotytes (RBC) were used as models for bacterial cell and mammalian cell, respectively. The peptide concentration required for 50% bacterial growth suppression (IC50), and peptide concentration required for 50% RBC lysis (HD50) are listed in Table 3. […] The antibacterial activities of peptide 1 and peptide 2 are about the same except peptide 2 has slightly lower IC50. Similar trend has been observed in the previous study, that longer peptide tends to have higher activity. However, the difference in IC50 is much smaller for this series of peptide than the previously studied ones. Antibacterial peptide with good selectivity is usually represented by its low hemolysis ability. […] The HD50 is 670 μM for peptide 1 and 240 μM for peptide 2, which gives a selectivity of 111 for peptide 1 and 60 for peptide 2.

[2] = Hemolysis assay, 50% lysis of RBC's; format: cell-based, human; conditions: human, 0.25% suspension of human erythrocytes (RBCs)
Experimental: as §1, §2, §3, §4

K91 E. coli = format: cell-based
Experimental: as §1
Antibacterial assay was performed by incubation of K 91 E. coli and peptide of different concentrations in minimal media, at pH 7.4. The peptide solution (50 μL) and K 91 E. coli culture (20 μL, grown in minimal media for 24 hr-36 hr) were mixed with 1 mL minimal media. […] The peptide dose required for 50% suppress of bacterial growth was obtained from the smooth fitted OD600 vs. log[peptide] curve.
as §4

osmY-lux fusion = test: Stress-induced response assay, induction of osmY-lux fusion; format: cell-based; conditions: for induction of osmY-lux: Group II peptides; for osmY gene fusion response: Table 4, stress sensed osmotic shock
Experimental: Stress-induced response and growth inhibition assays were carried out on samples of four of the β-peptide and compared to known polycationic peptides.
Polymyxin B was tested both rich, LB, medium and defined, M9, medium. The other natural peptides were tested in LB medium.
The β-peptides were tested in M9 medium. * In LB medium (data from Oh et al. Biochem. Biophys. Acta. 2000,1463: 43-54)
However, similar to the magainins, no induction of the micF-lux fusion was observed. Also, the minimum inhibitory concentrations (MIC's) were determined to be higher than those reported in the published manuscript.
Samples of these β-peptides 1 and 2 were evaluated in the stress-induced response assays.
The biolumenescence data result from test carried out according to U.S. Pat. No. 5,683,868, Highly Sensitive Method For Detecting Environmental Insults, issued Nov. 4, 1997 to LaRossa et al., the entire contents of the disclosure of are hereby incorporated by reference, The tests described in this patent permit antibacterial properties of peptides or any other materials to be assessed. […] Along these lines, FIG. 5 illustrates a relationship between relative light units and minutes of exposure of bacteria to the various materials in the legend. P×B represents polymyxin, a known antibacterial material. In the graph, a decrease in RULs corresponds to a decrease in bacteria. […]

[3] = K91 E. coli, minimal media, pH 7.4 (DeGrado lab), read-out: IC50 *

CC(C)[C@@H](CC(N)=O)NC(=O)C[C@H](CCCCN)NC(=O)C[C@H](C)NC(=O)C[C@@H](NC(=O)C[C@H](CCCCN)NC(=O)C[C@H](C)NC(=O)C[C@@H](NC(=O)C[C@H](CCCCN)NC(=O)C[C@H](C)NC(=O)C[C@@H](NC(=O)C[C@H](CCCCN)NC(=O)C[C@H](C)N)C(C)C)C(C)C)C(C)C [Peptide 1]
HC50 [1]: 670 µM
HD50 [1]: 670 µM
HC50 at 1 h ([2]; pH 7): 670 µM
IC50 (K91 E. coli; [3]): 6 µM
IC50 (K91 E. coli; Table 5, read-out: IC50): 6 µM
induction of osmY-lux (osmY-lux fusion): induction
osmY gene fusion response (osmY-lux fusion): yes

CC(C)[C@@H](CC(N)=O)NC(=O)C[C@H](CCCCN)NC(=O)C[C@H](C)NC(=O)C[C@@H](NC(=O)C[C@H](CCCCN)NC(=O)C[C@H](C)NC(=O)C[C@@H](NC(=O)C[C@H](CCCCN)NC(=O)C[C@H](C)NC(=O)C[C@@H](NC(=O)C[C@H](CCCCN)NC(=O)C[C@H](C)NC(=O)C[C@@H](NC(=O)C[C@H](CCCCN)NC(=O)C[C@H](C)N)C(C)C)C(C)C)C(C)C)C(C)C [Peptide 2]
HC50 [1]: 240 µM
HD50 [1]: 240 µM
HC50 at 1 h [2]: 240 µM
IC50 (K91 E. coli; [3]): 4 µM
IC50 (K91 E. coli; Table 5, read-out: IC50): 4 µM
induction of osmY-lux (osmY-lux fusion): induction
osmY gene fusion response (osmY-lux fusion): yes
